In the assay the test system is rats. Put plainly: Forced swimming test (FST) in rats. The assay is classed as in vivo. To be noted: forced swim test, oral 250 mg/kg or 500 mg/kg body weight after pre-swim and four hours and one hour prior to 5 minute test swim, two independent experiments. The procedure: The antidepressant effect of HMB was evaluated using the forced swimming test (FST) using the procedure described by Porsolt et al. (Eur. J. Pharmacol. 47(4). 379-91 (1978)). To begin the experiment, rats were individually placed inside vertical cylinders (height 40 cm; diameter 21.5 cm) containing 30 cm of water at 35 °C for 15 minutes (i.e., "pre-swim). Following this pre-swim period, the rats were removed and allowed to dry in a heated enclosure before returning to their cages. The rats were then orally administered a dose of either 250 mg/kg body weight or 500 mg/kg body weight HMB.
Twenty-four hours later, rats were submitted to the test swim, in which the rats were again placed in the cylinder for 5 minutes. Test swims were videotaped and subsequently assessed for latency to immobility, which is the point at which no movements were observed and the rat was in the "deadman" position (i.e., head up, tail down, front legs slightly hunched, and rear legs pointed downwards). Rats were orally administered their respective doses of either 250 mg/kg body weight or 500 mg/kg body weight of HMB four hours and one hours prior to the swim test.

Molecules are shown by their SMILES.

On to `CC(C)(O)CC(=O)O` [HMB, 3-hydroxy-3-methylbutanoic acid], for which the latency to immobility entry is “significantly increased”.
